Measurements as given in patent US20260265238A1, “COMPOUNDS AND PHARMACEUTICAL COMPOSITIONS THAT DEGRADE SWI/SNF-RELATED MATRIX-ASSOCIATED ACTIN-DEPENDENT REGULATOR OF CHROMATIN SUBFAMILY A” (Plexium, Inc., priority 2023, published 2026).

Tests used:
[1] = target: T1, SMARCA2-HiBiT HeLa cells (protein which is expressed from the SMARCA2 gene) (Homo sapiens, UniProt P51531); assay: SMARCA2 degradation assay (HiBiT-fusion HeLa cell line, 24 h, luminescence); type: cell-based
T1 construct: protein which is expressed from the SMARCA2 and SMARCA4 genes; host or cells: HeLa (SMARCA2-HiBiT engineered line)
T1 sequence (P51531 whole entry, the tested form may be a part): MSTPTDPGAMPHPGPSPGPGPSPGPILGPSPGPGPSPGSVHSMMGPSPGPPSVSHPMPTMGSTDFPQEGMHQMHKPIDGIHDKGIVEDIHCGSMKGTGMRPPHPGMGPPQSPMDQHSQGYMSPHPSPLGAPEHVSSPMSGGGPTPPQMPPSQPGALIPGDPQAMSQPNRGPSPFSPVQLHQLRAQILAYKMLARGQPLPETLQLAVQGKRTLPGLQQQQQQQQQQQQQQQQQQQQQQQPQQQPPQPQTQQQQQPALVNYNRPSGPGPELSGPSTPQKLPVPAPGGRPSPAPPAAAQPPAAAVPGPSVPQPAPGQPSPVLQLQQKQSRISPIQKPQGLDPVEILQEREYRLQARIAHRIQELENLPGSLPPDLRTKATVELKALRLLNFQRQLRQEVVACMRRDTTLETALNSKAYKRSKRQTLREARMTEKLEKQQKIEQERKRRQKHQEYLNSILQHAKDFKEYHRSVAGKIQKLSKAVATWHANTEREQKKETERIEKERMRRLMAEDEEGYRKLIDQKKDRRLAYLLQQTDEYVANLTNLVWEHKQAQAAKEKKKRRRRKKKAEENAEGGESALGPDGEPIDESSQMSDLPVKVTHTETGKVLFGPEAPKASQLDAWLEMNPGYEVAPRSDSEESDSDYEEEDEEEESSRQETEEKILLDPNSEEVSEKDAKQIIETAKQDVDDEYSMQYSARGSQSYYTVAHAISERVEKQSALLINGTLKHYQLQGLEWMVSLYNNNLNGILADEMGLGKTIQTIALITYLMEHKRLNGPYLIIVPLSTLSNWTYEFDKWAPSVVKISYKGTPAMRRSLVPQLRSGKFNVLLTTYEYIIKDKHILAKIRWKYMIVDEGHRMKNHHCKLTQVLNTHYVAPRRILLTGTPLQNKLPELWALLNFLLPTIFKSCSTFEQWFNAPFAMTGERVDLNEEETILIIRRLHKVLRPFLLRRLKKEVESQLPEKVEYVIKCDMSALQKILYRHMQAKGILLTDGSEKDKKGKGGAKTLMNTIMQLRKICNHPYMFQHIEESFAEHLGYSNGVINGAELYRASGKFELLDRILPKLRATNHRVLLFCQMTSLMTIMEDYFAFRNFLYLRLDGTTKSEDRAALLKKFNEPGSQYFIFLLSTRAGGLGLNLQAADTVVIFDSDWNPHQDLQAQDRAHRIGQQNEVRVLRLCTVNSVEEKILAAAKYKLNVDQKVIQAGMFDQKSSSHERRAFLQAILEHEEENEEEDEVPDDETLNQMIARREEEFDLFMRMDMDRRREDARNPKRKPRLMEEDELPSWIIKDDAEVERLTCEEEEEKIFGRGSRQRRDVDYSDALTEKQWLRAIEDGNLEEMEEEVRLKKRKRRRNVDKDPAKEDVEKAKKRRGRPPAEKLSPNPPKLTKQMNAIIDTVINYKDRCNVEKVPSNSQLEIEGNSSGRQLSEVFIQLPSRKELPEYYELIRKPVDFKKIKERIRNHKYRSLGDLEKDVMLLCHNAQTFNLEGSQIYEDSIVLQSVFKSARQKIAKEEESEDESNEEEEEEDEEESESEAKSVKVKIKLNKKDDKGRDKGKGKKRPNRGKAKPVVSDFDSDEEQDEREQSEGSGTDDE
Summary of the method: (§1)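 HeLa cells carrying HiBiT-tagged SMARCA2 or SMARCA4 were seeded at 8,000 cells/well, allowed to attach overnight at 37° C., then given compounds in a 10-point dilution series (typically 10 μM to 300 pM) for 24 hours at 37° C. Remaining tagged protein was read by HiBiT lytic luminescence, and DC50s came from dose-response curves.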

[2] = target: T2, SMARCA4-HiBiT HeLa cells (protein which is expressed from the SMARCA4 gene) (Homo sapiens, UniProt P51532); assay: SMARCA4 degradation assay (HiBiT-fusion HeLa cell line, 24 h, luminescence); type: cell-based
T2 construct: protein which is expressed from the SMARCA2 and SMARCA4 genes; host or cells: HeLa (SMARCA4-HiBiT engineered line)
T2 sequence (P51532 whole entry, the tested form may be a part): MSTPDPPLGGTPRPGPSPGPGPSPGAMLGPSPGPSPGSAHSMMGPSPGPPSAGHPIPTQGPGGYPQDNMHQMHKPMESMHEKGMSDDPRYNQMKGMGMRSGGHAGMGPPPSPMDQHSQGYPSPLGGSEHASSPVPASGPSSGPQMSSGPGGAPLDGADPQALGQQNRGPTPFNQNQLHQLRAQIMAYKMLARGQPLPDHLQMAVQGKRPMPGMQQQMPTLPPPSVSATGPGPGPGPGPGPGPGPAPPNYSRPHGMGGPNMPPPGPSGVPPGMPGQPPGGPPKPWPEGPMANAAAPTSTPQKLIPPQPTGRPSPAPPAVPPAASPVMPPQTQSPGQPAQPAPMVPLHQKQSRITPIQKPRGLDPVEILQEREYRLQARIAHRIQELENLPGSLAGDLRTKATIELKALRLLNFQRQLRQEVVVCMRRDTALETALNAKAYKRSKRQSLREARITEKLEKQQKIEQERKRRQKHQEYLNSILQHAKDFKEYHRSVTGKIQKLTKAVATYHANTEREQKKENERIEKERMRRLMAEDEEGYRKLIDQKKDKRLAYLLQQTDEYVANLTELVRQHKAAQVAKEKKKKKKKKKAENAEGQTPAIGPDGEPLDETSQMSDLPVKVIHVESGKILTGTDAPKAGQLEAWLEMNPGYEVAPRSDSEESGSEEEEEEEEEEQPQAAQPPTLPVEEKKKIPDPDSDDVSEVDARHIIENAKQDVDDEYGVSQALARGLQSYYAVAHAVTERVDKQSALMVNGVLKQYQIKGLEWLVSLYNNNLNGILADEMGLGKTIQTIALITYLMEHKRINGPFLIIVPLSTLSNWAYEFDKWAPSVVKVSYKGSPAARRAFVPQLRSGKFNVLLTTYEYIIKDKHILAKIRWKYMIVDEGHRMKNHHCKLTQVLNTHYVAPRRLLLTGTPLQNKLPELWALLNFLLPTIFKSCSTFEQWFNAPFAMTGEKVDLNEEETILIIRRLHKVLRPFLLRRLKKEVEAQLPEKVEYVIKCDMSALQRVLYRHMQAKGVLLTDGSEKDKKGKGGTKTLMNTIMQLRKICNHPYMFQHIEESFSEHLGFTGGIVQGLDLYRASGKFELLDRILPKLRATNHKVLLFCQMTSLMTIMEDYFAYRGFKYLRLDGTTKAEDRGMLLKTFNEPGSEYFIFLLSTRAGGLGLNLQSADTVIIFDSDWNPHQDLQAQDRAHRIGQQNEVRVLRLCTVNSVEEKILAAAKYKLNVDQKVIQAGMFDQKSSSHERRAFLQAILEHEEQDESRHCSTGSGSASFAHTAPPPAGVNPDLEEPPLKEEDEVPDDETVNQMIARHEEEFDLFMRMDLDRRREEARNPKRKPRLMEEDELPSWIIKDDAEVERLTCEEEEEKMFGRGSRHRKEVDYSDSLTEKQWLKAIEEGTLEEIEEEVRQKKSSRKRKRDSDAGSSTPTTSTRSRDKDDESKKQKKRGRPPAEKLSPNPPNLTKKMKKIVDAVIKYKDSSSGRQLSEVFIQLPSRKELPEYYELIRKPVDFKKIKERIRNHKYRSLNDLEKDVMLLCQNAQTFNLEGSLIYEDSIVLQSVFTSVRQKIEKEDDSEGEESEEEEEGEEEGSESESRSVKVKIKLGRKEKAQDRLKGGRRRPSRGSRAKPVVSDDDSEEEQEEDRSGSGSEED
Summary of the method: as §1

SMILES | DC50 [1] | SMARCA2 % Degradation @ 1 μM [1] | DC50 [2] | inhibition at 1 µM [2]
C[C@@H]1CCN(c2cc(-c3ccccc3O)nnc2N)CCN1c1ccnc(C#CCNC(=O)c2cccnc2)n1 [Compound P-240, N-[3-(4-{ (R)-4-[3-amino-6-(o-hydroxyphenyl)-4-pyridazinyl]-7-methyl-1,4-diazepan-1-yl}-2-pyrimidinyl)-2-propynyl]nicotinamide] | 500 to 5000 nM | ++ (++=30-70%) | 500 to 5000 nM | < 30%
Nc1nnc(-c2ccccc2O)cc1N1CC2CCC(C1)N2c1ccnc(C#CCNC(=O)c2cccnc2)n1 [Compound P-241, N-[3-(4-{3-[3-amino-6-(o-hydroxyphenyl)-4-pyridazinyl]-3,8-diazabicyclo[3.2.1]oct-8-yl}-2-pyrimidinyl)-2-propynyl]nicotinamide] | 50 to 500 nM | ++ (++=30-70%) | 50 to 500 nM | 30 to 70%
CO[C@@H]1CCN(CC#Cc2nccc(N3CCN(c4cc(-c5ccccc5O)nnc4N)CC[C@H]3C)n2)C1 [Compound P-242, o-{5-[(R)-4-(2-{3-[(R)-3-methoxy-1-pyrrolidinyl]-1-propynyl}-4-pyrimidinyl)-5-methyl-1,4-diazepan-1-yl]-6-amino-3-pyridazinyl} phenol] | < 50 nM | ++ (++=30-70%) | < 50 nM | 30 to 70%
C[C@@H]1CCN(c2cc(-c3ccccc3O)nnc2N)CCN1c1ccnc(C#CCN2CCC(F)(F)C2)n1 [Compound P-243, o-{5-[(R)-4-{2-[3-(3,3-difluoro-1-pyrrolidinyl)-1-propynyl]-4-pyrimidinyl}-5-methyl-1,4-diazepan-1-yl]-6-amino-3-pyridazinyl} phenol] | 50 to 500 nM | ++ (++=30-70%) | 50 to 500 nM | 30 to 70%
C[C@@H]1CCN(c2cc(-c3ccccc3O)nnc2N)CCN1c1ccnc(C#CCN2CC[C@H](F)C2)n1 [Compound P-244, o-{5-[(R)-4-(2-{3-[(S)-3-fluoro-1-pyrrolidinyl]-1-propynyl}-4-pyrimidinyl)-5-methyl-1,4-diazepan-1-yl]-6-amino-3-pyridaziny1}phenol] | < 50 nM | ++ (++=30-70%) | < 50 nM | 30 to 70%
C[C@@H]1CCN(c2cc(-c3ccccc3O)nnc2N)CCN1c1ccnc(C#CCN2CCC(C#N)C2)n1 (some centres unmarked) [Compound P-245] | 50 to 500 nM | +++ (+++=>70%) | 50 to 500 nM | 30 to 70%
CC1CCC(C)N1CC#Cc1nccc(N2CCN(c3cc(-c4ccccc4O)nnc3N)CC[C@H]2C)n1 (stereo partly drawn) [Compound P-246, o-{5-[(R)-4-{2-[3-(2,5-dimethyl-1-pyrrolidinyl)-1-propynyl]-4-pyrimidinyl}-5-methyl-1,4-diazepan-1-yl]-6-amino-3-pyridazinyl}phenol] | < 50 nM | ++ (++=30-70%) | < 50 nM | 30 to 70%
C[C@@H]1CCN(c2cc(-c3ccccc3O)nnc2N)CCN1c1nc(C#CCn2ccnc2)ncc1F [Compound P-247, o-{5-[(R)-4-{5-fluoro-2-[3-(1-imidazolyl)-1-propynyl]-4-pyrimidinyl}-5-methyl-1,4-diazepan-1-yl]-6-amino-3-pyridaziny1}phenol] | 50 to 500 nM | ++ (++=30-70%) | 50 to 500 nM | 30 to 70%
C[C@@H]1CCN(c2cc(-c3ccccc3O)nnc2N)CCN1c1nc(C#CCNC(=O)OC(C)(C)C)ncc1F [Compound P-248] | 500 to 5000 nM | ++ (++=30-70%) | 500 to 5000 nM | < 30%
CC1CC(C)N1CC#Cc1nccc(N2CCN(c3cc(-c4ccccc4O)nnc3N)CC[C@H]2C)n1 (stereo partly drawn) [Compound P-249, o-{5-[(R)-4-{2-[3-(2,4-dimethyl-1-azetidinyl)-1-propynyl]-4-pyrimidinyl}-5-methyl-1,4-diazepan-1-yl]-6-amino-3-pyridaziny1} phenol] | < 50 nM | ++ (++=30-70%) | < 50 nM | < 30%
C[C@H]1CCN(c2cc(-c3ccccc3O)nnc2N)CCN1c1ccnc(C#CCN(C)C)n1 [Compound P-250] | < 50 nM | +++ (+++=>70%) | < 50 nM | > 70%
C[C@@H]1CCN(c2cc(-c3ccccc3O)nnc2N)CCN1c1ccnc(C#CCOCC2CC(N(C)C)C2)n1 (stereo partly drawn) [Compound P-251, o-{5-[(R)-4-[2-(3-{[3-(dimethylamino)cyclobutyl]methoxy}-1-propynyl)-4-pyrimidinyl]-5-methyl-1,4-diazepan-1-yl]-6-amino-3-pyridazinyl}phenol] | 50 to 500 nM | +++ (+++=>70%) | 50 to 500 nM | 30 to 70%
C[C@@H]1CCN(c2cc(-c3ccccc3O)nnc2N)CCN1c1ccnc(C#CCN2CC(F)(F)C2)n1 [Compound P-252, o-{5-[(R)-4-{2-[3-(3,3-difluoro-1-azetidinyl)-1-propynyl]-4-pyrimidinyl}-5-methyl-1,4-diazepan-1-yl]-6-amino-3-pyridazinyl}phenol] | 50 to 500 nM | ++ (++=30-70%) | 50 to 500 nM | 30 to 70%
Nc1nnc(-c2ccccc2O)cc1N1CCC2(CCN(c3ccnc(C#CCn4ccnc4)n3)CC2)C1 [Compound P-253, o-[6-amino-5-(8-{2-[3-(1-imidazolyl)-1-propynyl]-4-pyrimidinyl}-2,8-diaza-2-spiro [4.5]decyl)-3-pyridazinyl]phenol] | 50 to 500 nM | ++ (++=30-70%) | 50 to 500 nM | 30 to 70%
CC(C#Cc1nccc(N2CCN(c3cc(-c4ccccc4O)nnc3N)CC[C@H]2C)n1)N(C)C (stereo partly drawn) [Compound P-254, o-{5-[(R)-4-{2-[3-(dimethylamino)-1-butynyl]-4-pyrimidinyl}-5-methyl-1,4-diazepan-1-yl]-6-amino-3-pyridazinyl}phenol] | < 50 nM | ++ (++=30-70%) | < 50 nM | 30 to 70%
N#CCNCC#Cc1nccc(N2CCCN(c3cc(-c4ccccc4O)nnc3N)CC2)n1 [Compound P-255, [3-(4-{4-[3-amino-6-(o-hydroxyphenyl)-4-pyridaziny1]-1,4-diazepan-1-yl}-2-pyrimidinyl)-2-propynylamino]acetonitrile] | 50 to 500 nM | ++ (++=30-70%) | 50 to 500 nM | 30 to 70%
CN1CCC(C#Cc2nccc(N3CCCN(c4cc(-c5ccccc5O)nnc4N)CC3)n2)CC1 [Compound P-256, o-[6-amino-5-(4-{2-[2-(1-methyl-4-piperidyl)ethynyl]-4-pyrimidinyl}-1,4-diazepan-1-yl)-3-pyridazinyl]phenol] | 50 to 500 nM | ++ (++=30-70%) | 500 to 5000 nM | 30 to 70%
CC[C@H](C)NCC#Cc1nccc(N2CCCN(c3cc(-c4ccccc4O)nnc3N)CC2)n1 [Compound P-257, o-{5-[4-(2-{3-[(S)-1-methylpropylamino]-1-propynyl}-4-pyrimidinyl)-1,4-diazepan-1-yl]-6-amino-3-pyridazinyl}phenol] | 50 to 500 nM | +++ (+++=>70%) | 50 to 500 nM | 30 to 70%
Nc1nnc(-c2ccccc2O)cc1N1CCCN(c2ccnc(C#CCNCCF)n2)CC1 [Compound P-258, o-[6-amino-5-(4-{2-[3-(2-fluoroethylamino)-1-propynyl]-4-pyrimidinyl}-1,4-diazepan-1-yl)-3-pyridazinyl]phenol] | 500 to 5000 nM | ++ (++=30-70%) | 500 to 5000 nM | 30 to 70%
CC(C)(C)OC(=O)NCC#Cc1nccc(N2CC3=C(C2)CN(c2cc(-c4ccccc4O)nnc2N)C3)n1 [Compound P-259, 3-(4-{7-[3-amino-6-(o-hydroxyphenyl)-4-pyridaziny1]-3,7-diazabicyclo[3.3.0]oct-1(5)-en-3-y1}-2-pyrimidinyl)-2-propynylamino-tert-butylformylate] | < 50 nM | ++ (++=30-70%) | < 50 nM | 30 to 70%
C[C@@H]1CCN(c2cc(-c3ccccc3O)nnc2N)CCN1c1ccnc(C#CCN2[C@H](C)COC[C@@H]2C)n1 [Compound P-260, o-{5-[(R)-4-(2-{3-[(3R,5S)-3,5-dimethyl-4-morpholiny1]-1-propynyl}-4-pyrimidinyl)-5-methyl-1,4-diazepan-1-yl]-6-amino-3-pyridaziny1}phenol] | < 50 nM | ++ (++=30-70%) | 50 to 500 nM | < 30%
C[C@@H]1CCN(c2cc(-c3ccccc3O)nnc2N)CCN1c1ccnc(C#CCN2[C@@H]3CC[C@H]2C[C@@H](O)C3)n1 [Compound P-261, 8-[3-(4-{(R)-4-[3-amino-6-(o-hydroxyphenyl)-4-pyridazinyl]-7-methyl-1,4-diazepan-1-yl}-2-pyrimidinyl)-2-propynyl]-8-azabicyclo[3.2.1]octan-3-ol] | 50 to 500 nM | +++ (+++=>70%) | 50 to 500 nM | 30 to 70%
CC(C)[C@@H]1COCCN1CC#Cc1nccc(N2CCN(c3cc(-c4ccccc4O)nnc3N)CC[C@H]2C)n1 [Compound P-262, o-{5-[(R)-4-(2-{3-[(R)-3-isopropyl-4-morpholinyl]-1-propynyl}-4-pyrimidinyl)-5-methyl-1,4-diazepan-1-yl]-6-amino-3-pyridazinyl} phenol] | 50 to 500 nM | +++ (+++=>70%) | 50 to 500 nM | 30 to 70%
